Assay results: US7645882B2, “Inhibitor of protein modification products formation” (priority 2003, dated 2010)

What was measured:
[1] = system: ischemia-reperfusion renal failure model rat; test: Renal protective effect on ischemia-reperfusion renal failure model rat; format: in vivo; details: 50 mg/kg twice daily by sonde, 2 days
Description: This condition model is typical acute renal failure model. To prepare the model, operated on wistar rats (male, body weight 150 g, 6 weeks aged) to remove right kidney, and on the following day, renal artery of remaining left kidney was apply a ligature with clip under general anesthesia. […] After preparing the ischemia-reperfusion model, test compound (TM-2002, 50 mg/kg body weight, twice a daily) was suspended in 0.5% carboxymethylcellulose. The suspension was coercively administered 2 days continuously using sonde, on third day kidney was obtained, and analysed pathologically (renal tubular stromal disorder score). In particular, the kidney was stained by PAS according to conventional method and the renal tubular stromal disorder was estimated for the presence or absence of renal tubular necrosis, renal tubular hypertrophy, renal tubular atrophia, renal tubular basal lamina thickening and cast in the sustained image of kidney. As well as biochemical analysis of blood was carried out (contract clinical analysis organization: SRL).

[2] = system: rat carotid balloon injury model; test: Vascular endothelial thickening inhibiting effect in rat carotid balloon injury model; format: in vivo; details: oral 50 mg/kg twice daily (hydrochloride), 15 days, aminoguanidine hydrochloride 45 mg/kg twice daily as positive control
Description: vascular endothelial thickening inhibiting effect in rat carotid balloon injury model, which is post-vasodilatory operation restenosis model.
TM-2002 was suspended in sodium carboxymethylcellulose aqueous solution (CMC) (0.5%) using mortar and prepared to the concentration of 12.5 mg/mL using measuring cylinder.
Aminoguanidine hydrochloride (Sigma) was used as positive control, suspended in CMC aqueous solution (0.5%) using mortar in the same manner, and prepare to the concentration of 11.25 mg/mL using measuring cylinder. Each preparation was formed when use it to administer orally coercively using disposable injection and oral sonde with suspending. […]
While testing, the alive and the condition of wound were observed everyday. The body weight was measured once a day from the day before injury to 14 day after balloon injury. The dose of each individuals were calculated by their body weight.
The blood samples were obtained from abdomen vena cava under anesthesia by ether on 15 day after balloon injury. […] The area of intravascular lumen, the area surrounded by internal elastic lamina and the area surrounded by external elastic lamina was calculated using image analyzer (VM-30, Olympus photology).
For each sections (3 region), the area of neointimal, media and neointimal/media rate of blood vessel was calculated from the measured area. […]

[3] = system: ORP150; test: ER stress inducing molecule expression in RIN-5F cells, western blot, ORP150; format: cell-based, rat; details: TM-2002 200 μM, 50 μM and tunicamycin co-added
Description: Rat pancreatic β cell line (RIN-5F) was seeded in 6 well culture plate to 1.0×10^5 cells/well, and after 24 hours, TM-2002 in DMSO (200 mM, 50 mM) were added to be final concentration 200 μM, 50 μM. After another 1 hour, 0.2 μl of tunicamycin (Sigma) in methanol(1 mg/ml) was added. After culturing 8 hours, the cells were washed 2 ml of PBS(+) twice, and the cells were dissolved in 100 μl of lysate (50 mM Tris-HCl (pH 7.5), 150 mM NaCl, 100 mM NaF, 100 mM sodium phosphate (pH 7.4), 2 mM Na3VO4, 0.1% protease inhibitor cocktail (Sigma), 1% Triton X-100). To remove the insoluble fraction of this lysate, centrifuged at 12,000×g for 10 minutes and obtained the supernatant to give cell extract. The extract was quantified its protein concentration using DC protein assay kit (Bio Rad), and each samples (1 μg) was electrophoresed by SDS-PAGE and transferred to PVDF membrane. The membrane was blocked with 5% skimmed milk/0.1% Tween20-TBS for 1 hour at room temperature, and reacted with anti-ORP150 antibody in 5% skimmed milk/0.1% Tween20-TBS (2000 folds: specific antibody), anti-GRP78 antibody (Santa Cruz) in 5% skimmed milk/0.1% Tween20-TBS (100 folds) and anti-actin antibody (Sigma) in 5% skimmed milk/0.1% Tween20-TBS (200 folds) for 2 hours. […] The detected signal was analyzed by Lane analyzer (ATTO) and calculated the signal strength. […]

## Cc1ncc2c(c1O)C(c1c(C)nn(-c3ccccc3)c1O)OC2 (centres unmarked) [compound 68, 1-(5-hydroxy-3-methyl-1-phenyl-1H-pyrazol-4-yl)-6-methyl-1,3-dihydro-furo[3,4-c]pyridin-7-ol]
[1]; kidney on third day
  BUN value: improved
  urinary protein: improved
[1]; p<0.0001
  number of glomerular cells: significantly suppressed
[2]
  intimal thickening inhibiting effect: intimal thickening inhibiting effect equal to aminoguanidine group
[3]
  hyperexpression of ORP150: suppressed
